These results are taken from patent US6943183B2 (Pfizer Inc, priority 2000, dated 2005).

In this experiment the target is T1, SF9 affinity purified rat FPT (Rattus norvegicus, UniProt Q02293+Q04631).
T1 construct: made in house; host or cells: Sf9 insect cells
Put plainly: PFT (FPT) inhibitory activity assay, radiolabeled farnesyl pyrophosphate and biotinyl peptide, streptavidin beads. To be noted: HEPES buffer pH 7.4, 30° C., 30 minutes; read-out: FTase IC50. In kind it is biochemical. The essentials:
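Rat FPT expressed in SF9 cells was incubated 30 minutes at 30° C. with compound (in 10% DMSO), radiolabeled farnesyl pyrophosphate and biotinylated peptide. Buffer: HEPES pH 7.4, ZnCl2 20 μM, MgCl2 and DTT 5 mM each, 0.1% PEG 8000, 5 mM potassium phosphate (also run without phosphate). Product captured on streptavidin beads in magnesium acetate/H3PO4 stop buffer.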
Usually IC50 stands for the point on the concentration scale where inhibition reaches its midpoint. Consider `C[C@@H](O)CNC(=O)c1ccccc1SCc1c(O[C@H](Cn2ccnc2)c2ccccc2)ccc2c1CCCC2=O` [Compound 194, N-[(2R)-2-Hydroxypropyl]-2-{[(2-{[(1S)-2-(1H-imidazol-1-yl)-1-phenylethyl]oxy}-5-oxo-5,6,7,8-tetrahydro-1-naphthalenyl)methyl]sulfanyl}benzamide], for which the IC50 was 0.2 nM.
The same measure for `O=C1CCCc2c1ccc(O[C@H](Cn1ccnc1)c1ccccc1)c2CSc1ccc(Br)cc1` [Compound 109, 6-((1S)-2-Imidazolyl-1-phenylethoxy)-5-[(4-bromophenylthio)methyl]-2,3,4-trihydronaphthalen-1-one]: 30 nM; for `CCCc1c(O[C@H](Cn2ccnc2)c2ccccc2)ccc2c1CCCC2=O` [Compound 53]: 5 nM.
Consider `C#CCNC(=O)c1ccccc1SCc1c(O[C@H](Cn2ccnc2)c2ccccc2)ccc2c1CCCC2=O` [Compound 211, 2-{[(2-{[(1S)-2-(1H-Imidazol-1-yl)-1-phenylethyl]oxy}-5-oxo-5,6,7,8-tetrahydro-1-naphthalenyl)methyl]sulfanyl}-N-(2-propynyl)benzamide], for which the half-maximal inhibitory concentration (IC50) turned out to be 0.2 nM.
As for `O=C1CCCc2c1ccc(O[C@H](Cn1ccnc1)c1ccccc1)c2CCc1cccnc1` [Compound 26b, (S)-6-(-2-imidazol-1-yl-phenyl-ethoxy)-5-(2-pyridin-3-yl-ethyl)-3,4-dihydro-2H-naphthalen-1-one], the IC50 worked out at 0.85 nM.
In the case of `O=C1CCCc2c1ccc(O[C@H](Cn1ccnc1)c1ccccc1)c2NC(=O)c1nccc2ccccc12` [Compound 40a, Isoquinoline-1-carboxylic acid [2-((S)-2-imidazol-1-yl-1-phenyl-ethoxy)-5-oxo-5,6,7,8-tetrahydro-naphthalen-1-yl]-amide], the IC50 is 0.65 nM.
Take `CC[C@H](CO)NC(=O)c1ccc(S(=O)(=O)Cc2c(O[C@H](Cn3ccnc3)c3ccccc3)ccc3c2CCCC3=O)cc1` [Compound 241, N-[(1R)-1-(Hydroxymethyl)propyl]-4-{[(2-{[(1S)-2-(1H-imidazol-1-yl)-1-phenylethyl]oxy}-5-oxo-5,6,7,8-tetrahydro-1-naphthalenyl)methyl]sulfonyl}benzamide]: the IC50 worked out at 0.26 nM.
With `C=CCNC(=O)c1ccccc1SCc1c(O[C@H](Cn2ccnc2)c2ccccc2)ccc2c1CCCC2=O` [Compound 208, N-Allyl-2-{[(2-{[(1S)-2-(1H-imidazol-1-yl)-1-phenylethyl]oxy}-5-oxo-5,6,7,8-tetrahydro-1-naphthalenyl)methyl]sulfanyl}benzamide], the IC50 stood at 0.2 nM.
The same measure for `CC(C)[C@@H](Cn1ccnc1)Oc1ccc2c(c1NC(=O)c1nccc3ccccc13)CCCC2=O` [Compound 63h, Isoquinoline-1-carboxylic acid [2-((S)-1-imidazol-1-ylmethyl-2-methyl-propoxy)-5-oxo-5,6,7,8-tetrahydro-naphthalen-1-yl]-amide]: 2.5 nM; for `C[C@H](O)CNC(=O)c1ccc(S(=O)(=O)Cc2c(O[C@H](Cn3ccnc3)c3ccccc3)ccc3c2CCCC3=O)cc1` [Compound 199, N-[(2S)-2-Hydroxypropyl]-4-{[(2-{[(1S)-2-(1H-imidazol-1-yl)-1-phenylethyl]oxy}-5-oxo-5,6,7,8-tetrahydro-1-naphthalenyl)methyl]sulfonyl}benzamide]: 0.4 nM.
For `CC(O)CNC(=O)c1ccccc1SCc1c(O[C@H](Cn2ccnc2)c2ccccc2)ccc2c1CCCC2=O` (stereo partly drawn) [Compound 257, N-(2-Hydroxypropyl)-2-{[(2-{[(1S)-2-(1H-imidazol-1-yl)-1-phenylethyl]oxy}-5-oxo-5,6,7,8-tetrahydro-1-naphthalenyl)methyl]sulfanyl}benzamide], the IC50 was 0.2 nM.
As for `O=C(NC1CC1)c1ccccc1S(=O)(=O)Cc1c(O[C@H](Cn2ccnc2)c2ccccc2)ccc2c1CCCC2=O` [Compound 225, N-Cyclopropyl-2-{[(2-{[(1S)-2-(1H-imidazol-1-yl)-1-phenylethyl]oxy}-5-oxo-5,6,7,8-tetrahydro-1-naphthalenyl)methyl]sulfonyl}benzamide], the IC50 worked out at 0.2 nM.
`O=C1CCCc2c1ccc(O[C@H](Cn1ccnc1)c1ccccc1)c2CCc1ccccc1` [Compound 20]: the IC50 turned out to be 0.4 nM.
The same measure for `CC(C)COCc1c(O[C@H](Cn2ccnc2)c2ccccc2)ccc2c1CCCC2=O` [Compound 19a, 6-((S)-2-Imidazol-1-yl-1-phenyl-ethoxy)-5-isobutoxymethyl-1-3,4-dihydro-2H-naphthalen-1-one]: 1.9 nM.
Take `CC[C@H](CO)NC(=O)c1ccc(SCc2c(O[C@H](Cn3ccnc3)c3ccccc3)ccc3c2CCCC3=O)cc1` [Compound 245, N-[(1R)-1-(Hydroxymethyl)propyl]-4-{[(2-{[(1S)-2-(1H-imidazol-1-yl)-1-phenylethyl]oxy}-5-oxo-5,6,7,8-tetrahydro-1-naphthalenyl)methyl]sulfanyl}benzamide]: the IC50 amounted to 0.2 nM.
For the compound `CC(O)CNC(=O)c1cccc(SCc2c(O[C@H](Cn3ccnc3)c3ccccc3)ccc3c2CCCC3=O)c1` (stereo partly drawn) [Compound 258, N-(2-Hydroxypropyl)-3-{[(2-{[(1S)-2-(1H-imidazol-1-yl)-1-phenylethyl]oxy}-5-oxo-5,6,7,8-tetrahydro-1-naphthalenyl)methyl]sulfanyl}benzamide], the IC50 stood at 0.2 nM.
Regarding `O=C1CCCc2c1ccc(O[C@H](Cn1ccnc1)c1ccccc1)c2CNS(=O)(=O)c1ccc(F)cc1F` [Compound 42b, 2,4-Difluoro-N-[2-((S)-2-imidazol-1-yl-1-phenyl-ethoxy)-5-oxo-5,6,7,8-tetrahydro-naphthalen-1-ylmethyl]-benzenesulfonamide; compound with trifluoro-acetic acid], the IC50 stood at 3.5 nM.
For the compound `Cc1ccc(OCc2c(O[C@H](Cn3ccnc3)c3ccccc3)ccc3c2CCCC3=O)cn1` [Compound 83, 6-((1S)-2-imidazolyl-1-phenylethoxy)-5-[(6-methyl(3-pyridyloxy))methyl]-2,3,4-trihydronaphthalen-1-one], the IC50 was found to be 18 nM.
As to `O=C(O)c1ccccc1SCc1c(O[C@H](Cn2ccnc2)c2ccccc2)ccc2c1CCCC2=O` [Compound 5, 2-{[2-((1S)-2-Imidazolyl-1-phenylethoxy)-5-oxo-6,7,8-trihydronaphenyl]methylthio}benzoic acid], the IC50 amounted to 2 nM.
With `O=C(O)CCNC(=O)c1ccc(S(=O)(=O)Cc2c(O[C@H](Cn3ccnc3)c3ccccc3)ccc3c2CCCC3=O)cc1` [Compound 166, N-4-{[(2-{[(1S)-2-(1H-Imidazol-1-yl)-1-phenylethyl]oxy}-5-oxo-5,6,7,8-tetrahydro-1-naphthalenyl)methyl]sulfonyl}benzoyl-β-alanine], the IC50 was found to be 30 nM.
The same measure for `O=C1CCCc2c1ccc(O[C@H](Cn1ccnc1)c1ccccc1)c2CSc1ccncc1` [Compound 8]: 3 nM; for `COCCNC(=O)c1cccc(SCc2c(O[C@H](Cn3ccnc3)c3ccccc3)ccc3c2CCCC3=O)c1` [Compound 259, 3-{[(2-{[(1S)-2-(1H-Imidazol-1-yl)-1-phenylethyl]oxy}-5-oxo-5,6,7,8-tetrahydro-1-naphthalenyl)methyl]sulfanyl}-N-(2-methoxyethyl)benzamide]: 0.2 nM; for `O=C(NC1CCCC1)c1ccc(S(=O)(=O)Cc2c(O[C@H](Cn3ccnc3)c3ccccc3)ccc3c2CCCC3=O)cc1` [Compound 217, N-Cyclopentyl-4-{[(2-{[(1S)-2-(1H-imidazol-1-yl)-1-phenylethyl]oxy}-5-oxo-5,6,7,8-tetrahydro-1-naphthalenyl)methyl]sulfonyl}benzamide]: 0.2 nM.
